Measurements as given in patent publication US8871778B2, “Substituted pyrimidine compounds and their use as SYK inhibitors” (Genosco, priority 2012, dated 2014).

Experiments:
[1] = test system: THP-1 cells; test: SYK-dependent TNF-α release assay (IgG stimulation), ELISA; type: cell-based, human; conditions: for IC50: human IgG-coated plate, 18 hours, SYK-dependent pathway, read-out: TNF-α release inhibition, IgG stimulation (IC50 nM)
Procedure: For SYK-dependent TNF-α release assay (i.e., via IgG stimulation), THP-1 cells derived from human monocytic cells were obtained from the American Type Culture Collection (ATCC, Manassas, Va.). This cell line was maintained with a Roswell Park Memorial Institute (RPMI) medium (GIBCO) containing 10% fetal bovine serum (FBS; GIBCO) and 0.05 mM solution of 2-mercaptoethanol. The THP-1 cells were seeded at 1×10^5 cells/100 μL/well into human IgG (10 ng/well, INVITROGEN)-coated 96 well culture plate, and serially diluted compound was then added. After an 18 hours of incubation period at 37° C., supernatants were collected for the determination of the TNF-α level by enzyme-linked immunosorbent assay (ELISA), and the remaining cells were subjected to an MTT (yellow tetrazolium salt) assay to determine the cytotoxic effects of the compound. The IC50 value of the test compound was calculated at Gradpad Prism 5 unless otherwise specified.

[2] = test system: THP-1 cells; test: SYK-independent TNF-α release assay (lipopolysaccharide stimulation), ELISA; type: cell-based, human; conditions: SYK-independent pathway; for IC50: LPS, 18 hours, read-out: TNF-α release inhibition, LPS stimulation (IC50 nM)
Procedure: For SYK-independent TNF-α release assay, THP-1 cells were seeded at 1×10^5 cells/100 μL/well into 96 well culture plate, and serially diluted compound solution was added following lipopolysaccharide stimulation. After an 18-hour incubation period at 37° C., supernatants were collected for the determination of the TNF-α level by enzyme-linked immunosorbent assay (ELISA), and the remaining cells were subjected to an MTT (yellow tetrazolium salt) assay to determine the cytotoxic effects of compound. The IC50 value of test compound was calculated at Gradpad Prism 5 unless otherwise specified.

[3] = test system: CIA mouse model (DBA/1J mice); test: Collagen-induced arthritis (CIA) mouse model, macroscopic scoring of paws; type: in vivo; conditions: for Inhibition in arthritis phenotype indicated by CIA compared with R788 (in words): mouse, in vivo; for CIA index (arthritic score of test group / vehicle group x 100): 30 mg/kg/day oral gavage once daily, DBA/1J mice
Procedure: CIA mouse model was induced in DBA/1J mice (Japan Charles River Breeding Laboratories, Kanagawa, Japan) with 5 to 6 weeks of age. Animals were maintained at a temperature of 20±5° C. and a relative humidity of 40˜60%.
Bovine type II collagen (CII, 2 mg/ml dissolved in 0.05 M acetic acid, Chondrex, Redmond, Wash.) was emulsified in equal volumes of Freund's complete adjuvant (4 mg/ml of Mycobacterium tuberculosis strain H37Ra; Chondrex, Redmond, Wash.). On day 0, mice were immunized intradermally at the base of the tail with 100 μg bovine type II collagen emulsified in Freund's complete adjuvant. On day 21, all mice were boosted with an intraperitoneal injection of 100 μg type II collagen.
All the test substances were administered once daily at 30 mg/kg/day by oral gavage for 3 weeks.
The gradual onset of arthritis usually starts approximately 3 weeks after initial immunization. The progression of CIA was evaluated by the macroscopic scoring of paws at intervals of 3 days. The edema and swelling of each paw was scored visually as was described previously, using a scale of 0-4, where 0=no visible abnormalities, 1=mild redness or swelling of the wrist or up to three inflamed digits, 2=more than three inflamed digits or moderate redness and swelling of the ankle or wrist, 3=severe ankle and wrist inflammation, 4=extensive ankle and wrist inflammation including all digits.
Arthritis was considered to be present if the score was >2. The blind scoring was performed by four independent observers. In this study, data was calculated by following equation.

[4] = molecular target: full-length human KDR (VEGFR2) (Homo sapiens (Human), UniProt P35968); test: Inhibition of enzymatic KDR kinase activity (LANCE Ulight-JAK1 peptide, Eu-antibody, 665 nm emission); type: biochemical; conditions: ATP at Km (15 uM)
Sequence of full-length human KDR (VEGFR2) (P35968 20-1356): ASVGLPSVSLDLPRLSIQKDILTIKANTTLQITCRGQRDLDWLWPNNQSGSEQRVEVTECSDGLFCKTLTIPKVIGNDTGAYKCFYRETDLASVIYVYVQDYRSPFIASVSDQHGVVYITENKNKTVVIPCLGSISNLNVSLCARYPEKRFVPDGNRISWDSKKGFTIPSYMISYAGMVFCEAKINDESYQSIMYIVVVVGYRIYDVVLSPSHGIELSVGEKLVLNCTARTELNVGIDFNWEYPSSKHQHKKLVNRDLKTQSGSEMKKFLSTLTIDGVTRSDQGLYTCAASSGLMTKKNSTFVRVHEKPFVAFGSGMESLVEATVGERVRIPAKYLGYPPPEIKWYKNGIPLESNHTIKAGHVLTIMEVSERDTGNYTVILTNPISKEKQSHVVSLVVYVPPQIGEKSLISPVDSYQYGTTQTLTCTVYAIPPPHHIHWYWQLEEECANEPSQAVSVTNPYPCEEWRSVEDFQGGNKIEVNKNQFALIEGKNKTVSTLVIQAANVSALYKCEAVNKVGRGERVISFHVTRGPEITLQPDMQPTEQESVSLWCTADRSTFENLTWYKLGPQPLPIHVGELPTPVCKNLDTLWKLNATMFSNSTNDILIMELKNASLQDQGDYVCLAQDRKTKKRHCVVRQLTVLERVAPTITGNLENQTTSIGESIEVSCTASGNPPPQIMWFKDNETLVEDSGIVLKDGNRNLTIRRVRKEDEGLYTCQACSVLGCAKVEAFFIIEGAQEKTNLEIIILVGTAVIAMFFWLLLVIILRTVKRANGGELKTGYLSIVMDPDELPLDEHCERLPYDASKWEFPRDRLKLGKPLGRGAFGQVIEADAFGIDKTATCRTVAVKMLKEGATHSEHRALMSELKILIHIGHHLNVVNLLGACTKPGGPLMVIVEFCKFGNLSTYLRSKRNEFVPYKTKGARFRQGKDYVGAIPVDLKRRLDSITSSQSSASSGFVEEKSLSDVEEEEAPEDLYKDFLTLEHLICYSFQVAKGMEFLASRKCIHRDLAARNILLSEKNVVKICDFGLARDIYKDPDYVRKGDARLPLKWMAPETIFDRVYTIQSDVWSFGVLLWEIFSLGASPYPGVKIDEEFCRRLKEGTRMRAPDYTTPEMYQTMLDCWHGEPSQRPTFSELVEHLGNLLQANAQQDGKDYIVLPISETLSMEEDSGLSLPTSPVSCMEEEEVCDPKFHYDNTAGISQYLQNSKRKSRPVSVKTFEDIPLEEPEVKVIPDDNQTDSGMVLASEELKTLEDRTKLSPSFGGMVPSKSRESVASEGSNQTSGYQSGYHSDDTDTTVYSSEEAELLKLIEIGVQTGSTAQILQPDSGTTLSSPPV

[5] = molecular target: full-length human SYK (Homo sapiens (Human), UniProt P43405); test: Inhibition of enzymatic SYK kinase activity (LANCE Ulight-TK peptide, Eu-antibody, 665 nm emission); type: biochemical; conditions: ATP at Km (15 uM)

Work on `Cc1nn(-c2ccnc(Nc3ccc4c(c3)c(Cl)c(C)n4C)n2)cc1CN1CC[C@@H](O)C1` [Compound 189, (R)-1-((1-(2-(3-Chloro-1,2-dimethyl-1H-indol-5-ylamino)pyrimidin-4-yl)-3-methyl-1H-pyrazol-4-yl)methyl)pyrrolidin-3-ol] yielded an IC50 [1] of 42 nM and an IC50 ([2]; Homo sapiens) of 2800 nM.
Molecule `Cc1nn(-c2ccnc(Nc3ccc4c(c3)c(C(=O)C(F)(F)F)cn4C)n2)cc1CN1CC(O)C1` [Compound 151, 2,2,2-Trifluoro-1-(5-(4-(4-((3-hydroxyazetidin-1-yl)methyl)-3-methyl-1H-pyrazol-1-yl)pyrimidin-2-ylamino)-1-methyl-1H-indol-3-yl)ethanone] has an IC50 [1] of 20 nM and an IC50 ([2]; Homo sapiens) greater than 1000 nM.
`Cc1nn(-c2ccnc(Nc3ccc4c(c3)c(Cl)cn4C)n2)cc1CN1CC(O)C1` [Compound 144, 1-((1-(2-(3-Chloro-1-methyl-1H-indol-5-ylamino)pyrimidin-4-yl)-3-methyl-1H-pyrazol-4-yl)methyl)azetidin-3-ol] was tested, and the “Inhibition in arthritis phenotype indicated by CIA compared with R788 (in words)” value [3] was “stronger inhibition”, the “Inhibition in SYK dependent TNF-α release assay compared with R406 (in words)” value ([1]; IgG stimulated release) was “stronger inhibition than R406” and the IC50 [1] was 13 nM. The IC50 ([2]; Homo sapiens) was 1140 nM and the “Inhibition in LPS stimulated TNF-α production (in words)” value [2] was “no inhibition”.
`Cc1nn(-c2ccnc(Nc3ccc4c(cnn4C)c3)n2)cc1CN1CC(O)C1` [Compound 160, 1-((3-Methyl-1-(2-(1-methyl-1H-indazol-5-ylamino)pyrimidin-4-yl)-1H-pyrazol-4-yl)methyl)azetidin-3-ol] showed an IC50 [1] of 91 nM and an IC50 ([2]; Homo sapiens) of 934 nM.
In the case of `Cc1nn(-c2ccnc(Nc3ccc4c(c3)c(Cl)c(C)n4C)n2)cc1CN1CC(O)C1` [Compound 141, 1-((1-(2-(3-chloro-1,2-dimethyl-1H-indol-5-ylamino)pyrimidin-4-yl)-3-methyl-1H-pyrazol-4-yl)methyl)azetidin-3-ol], the “Inhibition in arthritis phenotype indicated by CIA compared with R788 (in words)” value [3] was “stronger inhibition” and the IC50 [4] was 192 nM.
In the case of `COc1cc(Nc2ncc(F)c(Nc3ccc4c(n3)NC(=O)C(C)(C)O4)n2)cc(OC)c1OC` [Compound R406, reference compound], the IC50 [1] was 171 nM.
`Cc1cn(-c2ccnc(Nc3ccc4c(ccn4C)c3)n2)cc1CN1CC(O)C1` [Compound 52, 1-((4-methyl-1-(2-(1-methyl-1H-indol-5-ylamino)pyrimidin-4-yl)-1H-pyrrol-3-yl)methyl)azetidin-3-ol] gave an IC50 [5] of 190 nM.
`COc1cc(Nc2ncc(F)c(Nc3ccc4c(n3)N(COP(=O)(O)O)C(=O)C(C)(C)O4)n2)cc(OC)c1OC` [Compound R788] was tested, and the “CIA index (arthritic score of test group / vehicle group x 100)” value ([3]; day 6) was 41.9 ± 7.5%, the “CIA index (arthritic score of test group / vehicle group x 100)” value ([3]; day 9) was 49.6 ± 9.4% and the “CIA index (arthritic score of test group / vehicle group x 100)” value ([3]; day 12) was 68.3 ± 8.6%. The “CIA index (arthritic score of test group / vehicle group x 100)” value ([3]; day 15) was 74.1 ± 7.1%, the “CIA index (arthritic score of test group / vehicle group x 100)” value ([3]; day 18) was 79.4 ± 10.7% and the “CIA index (arthritic score of test group / vehicle group x 100)” value ([3]; day 21) was 80.1 ± 6.7%.
Work on `C[C@@H]1C[C@H]2[C@@H]3CCC4=CC(=O)C=C[C@]4(C)[C@@]3(F)[C@@H](O)C[C@]2(C)[C@@]1(O)C(=O)CO` [Dexamethasone] yielded an IC50 [2] of 431 nM.
